Source: patent US9549911B2, “Ginger metabolites and uses thereof” (North Carolina A&T State University, priority 2012, dated 2017)

How the values were obtained:
[1] = system: HCT-116, HT-29, H-1299, and CL-13 cancer cell lines; assay: Metabolism of [6]-shogaol in cancer cells; assay type: in vitro ADME; details: 10 μM, HCT-116, HT-29, H-1299, CL-13, up to 24 h
Description: Cells (1.0×10^6) were plated in six-well culture plates and were allowed to attach for 24 h at 37° C. in 5% CO2 incubator. [6]-Shogaol [in dimethyl sulfoxide (DMSO)] was added to McCoy's 5A medium (containing 10% fetal bovine serum, 1% penicillin/streptomycin, and 1% glutamine) to reach a final concentration of (10 μM) and was incubated with different cancer cell lines (HCT-116, HT-29, H-1299, and CL-13). At different time points (0, 30 min, 1, 2, 4, 6, 8, and 24 h), 190-μl samples of supernatant were taken and transferred to vials containing (10 μl) of 0.2% ascorbic acid to stabilize [6]-shogaol and its metabolites. The metabolites were extracted from media by addition of equal volume of acetonitrile and centrifugation, in which the supernatant was harvested. The samples were then diluted 5-fold in acetonitrile and were analyzed by HPLC ECD.

[2] = Kinetic study of [6]-shogaol metabolism to M6 in liver microsomes; details: human liver microsomes 0.1 mg/mL, 30 min, [6]-shogaol 7.8 to 2000 μM
Description: To estimate kinetic parameters of metabolism of [6]-shogoal to major product M6 in liver microsomes from human and other species, the incubation conditions were optimized to ensure that formation rate of M6 was in the linear range in relation to incubation time and protein concentration. [6]-Shogaol (7.81, 15.63, 31.25, 62.5, 125, 250, 500, 1000, and 2000 μM) was incubated with liver microsomes from mouse (MLM), rat (RLM), dog (DLM), monkey (CyLM), and human (HLM) (0.1 mg/mL each, respectively) for 30 minutes. All incubations were performed in triplicate. The apparent Km and Vmax values were calculated from analysis of experimental data according to the Michaelis-Menten equation, and the results were graphically represented (for HLM) by an Eadie-Hofstee plot. Kinetic constants were reported as the value+/−S.E. of the parameter estimate.

HT-29 colon cancer cells = assay: Apoptosis by FACS analysis of propidium iodide-stained cells; assay type: cell-based, human; details: HT-29, 40 μM, 24 hours
Description: (§1) Apoptosis was determined by FACS analysis of propidium iodide (PI)-stained cells. In brief, cells were trypsinized, washed with cold phosphate-buffered saline (PBS), fixed in ice-cold 70% ethanol for 1 hour, and then resuspended in 2 mL PBS supplemented with 10 μL RNase (100 mg/ml) and incubated at 37° C. for 30 min. After incubation, DNA was stained with 1 mg/mL PI in PBS. Cell staining was analyzed using a Cell Lab Quanta™ SC flow cytometer (Beckman Coulter, Danvers, Mass.) and data were processed using FCS Express software (DeNovo Software, Los Angeles, Calif.). The percentage of apoptotic cells in each sample was determined based on the sub G0 peaks detected in monoparametric histograms.

[3] = system: HCT-116 colon cancer cells; assay: as above; assay type: cell-based, human; details: HCT-116, 40 μM, 24 hours
Description: as §1

Compound	metabolism in cancer cell lines [1]	Vmax of M6 formation [2]	Km ([2]; read-out: Km of M6 formation)	apoptotic cells (FACS, PI) (HT-29 colon cancer cells)	apoptotic cells (FACS, PI) [3]
CCCCC/C=C/C(=O)CCc1ccc(O)c(OC)c1 [[6]-shogaol, reference compound]	extensively metabolized	10.82+/−0.47 nanomoles per minute per milli	45.6 µM	–	–
CCCCCC(CC(=O)CCc1ccc(O)c(OC)c1)SC[C@H](N)C(=O)O (some centres unmarked) [M2, 5-cysteinyl-[6]-shogaol]	–	–	–	14.38%	26.34%
